The subject of assay [1] is HCMV recombinant mutant virus whose genome contains the prokaryotic beta-glucuronidase gene. The experiment in a line: microbe, parasite or virus in culture. Format: cell-based, human cytomegalovirus. The following applies: for IC50: Human betaherpesvirus 5, Fibroblast. The text has this: Microtiter plate assay. Ninety-six well plate cultures of human foreskin fibroblasts are infected in the presence of inhibitor compound with a HCMV recombinant mutant virus whose genome contains the prokaryotic beta-glucuronidase gene (Jefferson, R. A., S. M. Burgess, and D. Hirsh. 1986. Beta-glucuronidase from Escherichia coli as a gene fusion marker. Proc. Natl. Acad. Sci. USA 83:8447-8451) whose expression is controlled by a viral promoter. An example of such a virus is RV145 (Jones, T. R., V. P. Muzithras, and Y. Gluzman. 1991. Replacement mutagenesis of the human cytomegalovirus genome: US10 and US11 gene products are nonessential. J. Virol. 65:5860-5872). Since it is under the control of a viral promoter, beta-glucuronidase expression is an indirect indicator of growth and replication of HCMV in this assay. At 96 hours post-infection, the infected cell lysates are prepared (using 50mM sodium phosphate [pH7.0] containing 0.1% Triton X-100 and 0.1% sarkosyl) and assayed for beta-glucuronidase activity using a substrate for the enzyme which when cleaved yields either a product which can be measured colorimetrically in a spectrophotometer or fluorescently in a microfluorimeter. Examples of such substrates are p-nitrophenyl-beta-D-glucuronide and methylumbelliferylglucuronide, respectively. The presence of an antiviral compound is indicated by the reduced expression of the HCMV genome resident beta-glucuronidase gene, compared to the absence of inhibitor. […] Data from this assay generated using varying amounts of inhibitor compound is also used to estimate the IC50 of an inhibitor compound.

The subject of another assay is HSV- I. The experiment in a line: HSV antiviral (ELISA) assay. Format: cell-based. The following applies: read-out: IC50 (ug/ml) HSV. On the procedure: Vero cells (ATCC #CCL-81) are plated on 96-well tissue culture plates at 3.5x10^4 cells per 100µl tissue culture DMEM (Dulbecco's modified Eagle media) supplemented with 2% fetal bovine serum (FBS) in each well. After overnight incubation @ 37°C (in 5% CO2) and 30 minutes prior to infection with HSV- I (multiplicity of infection equal to 0.006), cells are either untreated, or treated with test compound (multiple concentrations) or reference standard drug control. After approximately 24 hours post-infection incubation @ 37°C (in 5% CO2), cells are fixed for ELISA assay. The primary antibody is murine anti-HSV glycoprotein D monoclonal primary antibody and the secondary antibody is goat anti-mouse IgG linked to β-galactosidase. Thus the extent of viral replication is determined by assessing β-galactosidase activity by quantifying the generation of the 4-methyl umbelliferone fluorescent cleavage product after addition of the methyl umbelliferyl-β-D-galactoside (Sigma #M1633) substrate on a microfluorimeter (365nm for excitation and 450nm for emission). Antiviral activity (IC50) of the test compound is determined by comparing the flourescence obtained in absence of compound to that obtained in the presence of compound.
In general terms: In an ELISA, binding on a coated surface is turned into a signal by an enzyme label.

The next assay relates to VZV strain Ellen. Briefly: VZV antiviral (ELISA) assay. Format: cell-based. On the procedure:
For the generation of stock VZV to be used in the assay, VZV strain Ellen (ATCC #VR-1367) is used to infect human foreskin fibroblast (HFF) cells at low multiplicity (less than 0.1) and incubated overnight at 37°C in 5% CO2. After the overnight incubation, the mixture of uninfected and VZV-infected HFF infected cells are then harvested and added to each well of 96-well plates (3.5x10^4 cells in 100 µl DMEM supplemented with 2% FBS) which contain test compound or the reference standard drug control (in 100µl DMEM supplemented with 2% FBS per well). These cells are incubated for three days at 37°C in 5% CO2, then fixed for ELISA assay. The primary antibody is murine anti-VZV glycoprotein II monoclonal antibody (Applied Biosystems, Inc. #13-145-100) and the secondary antibody is goat anti-mouse IgG linked to β-galactosidase. Thus the extent of viral replication is determined by assessing β-galactosidase activity by quantifying the generation of the 4-methyl umbelliferone fluorescent cleavage product after addition of the methyl umbelliferyl-β-D-galactoside (Sigma #M1633) substrate on a microfluorimeter (365nm for excitation and 450nm for emission). Antiviral activity (IC50) of the test compound is determined by comparing the flourescence obtained in absence of compound to that obtained in the presence of compound.

Setting [2] is: read-out: IC50 ug/ml HCMV, HCMV, human foreskin fibroblasts.
Setting [3] is: Human alphaherpesvirus 3, HFF, read-out: IC50 (ug/ml) VZV, VZV strain Ellen, HFF cells, ELISA.

From patent EP1137645B1, “ALPHA-METHYLBENZYL-CONTAINING THIOUREA INHIBITORS OF HERPES VIRUSES CONTAINING A […] GROUP” (Wyeth, priority 1998, dated 2000) come the findings set out here.

≈ marks a conversion by molar mass, not a printed value. Like-named read-outs stand apart in the source and are kept apart here.

`O=C(Nc1ccc(NC(=S)NCc2ccc(F)c(Cl)c2)cc1)c1ccccc1F` [Example 677, N-{4-[3-(3-Chloro-4-fluoro-benzyl)-thioureido]-phenyl}-2-fluoro-benzamide]: the values for the IC50 (in assay [1] (setting [2]); in the assay with HSV- I (Vero)) were greater than 0.5 µg/mL and greater than 10 µg/mL, respectively. Consider `CC(NC(=S)Nc1ccc(NC(=O)c2ccc(N(C)C)cc2)cc1)c1ccc(F)cc1` (stereo not drawn) [Example 765, 4-Dimethylamino-N-(4-{3-[1-(4-fluoro-phenyl)-ethyl]-thioureido}-phenyl)-benzamide], for which the IC50 in assay [1] (setting [2]) is 2.3 µg/mL (≈ 5.27 µM); with HSV- I (Vero), 10 µg/mL (≈ 22.9 µM). For the molecule `O=C(Nc1ccc(NC(=S)NCCOc2ccc(I)cc2)cc1)c1ccccc1F` [Example 696, 2-Fluoro-N-(4-{3-[2-(4-iodo-phenoxy)-ethyl]-thioureido}-phenyl)-benzamide], the IC50 in assay [1] (read-out: IC50 ug/ml HCMV) was greater than 3 µg/mL; in the assay with HSV- I (HSV- I, Vero cells, ELISA), 10 µg/mL (≈ 18.7 µM). For `O=C(Nc1ccc(NC(=S)NCc2ccc(F)c(F)c2)cc1)c1ccccc1F` [Example 672, N-{4-[3-(3,4-Difluoro-benzyl)-thioureido]-phenyl}-2-fluoro-benzamide] the same measures were greater than 0.5 µg/mL and greater than 10 µg/mL. For the molecule `O=C(Nc1ccc(NC(=S)NC(c2ccccc2)c2ccc(F)cc2)cc1)c1ccccc1F` (stereo not drawn) [Example 772, 2-Fluoro-N-(4-{3-[(4-fluoro-phenyl)-phenyl-methyl]-thioureido}-phenyl)-benzamide], the IC50 is 0.35 µg/mL (≈ 0.739 µM) in assay [1] (setting [2]) and greater than 10 µg/mL in the assay with HSV- I (Vero). As to `O=C(Nc1ccc(NC(=S)NCCOc2ccc(Br)cc2)cc1)c1ccccc1F` [Example 695, N-(4-{3-[2-(4-Bromo-phenoxy)-ethyl]-thioureido}-phenyl)-2-fluoro-benzamide], the results for the IC50 (in assay [1] (setting [2]); in the assay with HSV- I (Vero)) were greater than 3 µg/mL and greater than 10 µg/mL, respectively. Consider `CN(C)c1cc(CCNC(=S)Nc2ccc(NC(=O)c3ccccc3F)cc2)cc(C(F)(F)F)c1` [Example 653, N-(4-{3-[2-(3-Dimethylamino-5-trifluoromethyl-phenyl)-ethyl]-thioureido}-phenyl)-2-fluoro-benzamide], for which the IC50 in assay [1] (setting [2]) is greater than 0.5 µg/mL; in the assay on HSV- I (Vero) it was greater than 10 µg/mL. For `COc1ccccc1C(=O)Nc1ccc(NC(=S)NC(C)c2ccc(F)cc2)cc1` (stereo not drawn) [Example 752, N-(4-{3-(1-(4-Fluoro-phenyl)-ethyl]-thioureido}-phenyl)-2-methoxy-benzamide] the same measures were greater than 0.5 µg/mL and greater than 10 µg/mL.

For `Cc1cc(CCNC(=S)Nc2ccc(NC(=O)c3ccccc3F)cc2)ccc1N(C)C` [Example 673, N-(4-{3-[2-(4-Dimethylamino-3-methyl-phenyl)-ethyl]-thioureido}-phenyl)-2-fluoro-benzamide], the IC50 in assay [1] (setting [2]) was greater than 0.5 µg/mL; in the assay with HSV- I (Vero), 7 µg/mL (≈ 15.5 µM).

As to `CC(C)(NC(=S)Nc1ccc(NC(=O)c2ccccc2F)cc1)c1ccccc1` [Example 727, 2-Fluoro-N-{4-[3-(1-methyl-1-phenyl-ethyl)-thioureido]-phenyl}-benzamide], the IC50 in the assay with HSV- I (Vero) was greater than 10 µg/mL. `O=C(Nc1ccc(NC(=S)NCCOc2cccc(Cl)c2)cc1)c1ccccc1F` [Example 666, N-(4-{3-[2-(3-Chloro-phenoxy)-ethyl]-thioureido}-phenyl)-2-fluoro-benzamide]: the IC50 in assay [1] (setting [2]) is greater than 0.5 µg/mL; in the assay on HSV- I (Vero) it was 10 µg/mL (≈ 22.5 µM). Take `CN1CCN(c2ccc(CNC(=S)Nc3ccc(NC(=O)c4ccccc4F)cc3)cc2C(F)(F)F)CC1` [Example 687, 2-Fluoro-N-(4-{3-[4-(4-methyl-piperazin-1-yl)-3-trifluoromethyl-benzyl]-thioureido}-phenyl)-benzamide]: the values for the IC50 (in assay [1] (setting [2]); with HSV- I (Vero)) were greater than 0.5 µg/mL and 1.2 µg/mL (≈ 2.2 µM), respectively. `CCC(NC(=S)Nc1ccc(NC(=O)c2ccccc2F)cc1)c1ccc(F)cc1` (stereo not drawn) [Example 771, 2-Fluoro-N-(4-{3-[1-(4-fluoro-phenyl)-propyl]-thioureido}-phenyl)-benzamide]: the IC50 in assay [1] (setting [2]) is 0.4 µg/mL (≈ 0.94 µM); with HSV- I (Vero) it was greater than 10 µg/mL. The matching figures for `O=C(Nc1ccc(NC(=S)NCCSc2ccccc2)cc1)c1ccccc1F` [Example 656, 2-Fluoro-N-{4-[3-(2-phenylsulfanyl-ethyl)-thioureido]-phenyl}-benzamide]: greater than 0.5 µg/mL and 5 µg/mL (≈ 11.7 µM).

As for `CC(C)(C)c1ccc(CNC(=S)Nc2ccc(NC(=O)c3ccccc3F)cc2)cc1` [Example 724, N-{4-[3-(4-tert-Butyl-benzyl)-thioureido]-phenyl}-2-fluoro-benzamide], the IC50 in the assay on HSV- I (Vero) was greater than 10 µg/mL.

Consider `O=C(Nc1ccc(NC(=S)NCCc2ccccc2F)cc1)c1ccccc1F` [Example 721, 2-Fluoro-N-(4-{3-[2-(2-fluoro-phenyl)-ethyl]-thioureido}-phenyl)-benzamide], for which the IC50 with HSV- I (HSV- I, Vero cells, ELISA) is greater than 10 µg/mL. With `O=C(Nc1ccc(NC(=S)Nc2ccc(Cl)cc2)cc1)c1ccccc1F` [Example 946, N-{4-[3-(4-Chloro-phenyl)-thioureido]-phenyl}-2-fluoro-benzamide], the IC50 (in assay [1] (setting [2]); in the assay on HSV- I (Vero)) was greater than 10 µg/mL each time. Consider `Cc1cc(C)cc(CNC(=S)Nc2ccc(NC(=O)c3ccccc3F)cc2)c1` [Example 725, N-{4-[3-(3,5-Dimethyl-benzyl)-thioureido]-phenyl}-2-fluoro-benzamide], for which the IC50 in the assay with HSV- I (Vero) was greater than 10 µg/mL. As to `O=C(Nc1ccc(NC(=S)NCCc2ccc(Cl)c(Cl)c2)cc1)c1ccccc1F` [Example 719, N-(4-{3-[2-(3,4-Dichloro-phenyl)-ethyl]-thioureido}-phenyl)-2-fluoro-benzamide], the IC50 in assay [1] (setting [2]) was greater than 0.5 µg/mL; in the assay with HSV- I (Vero), greater than 10 µg/mL. `O=C(Nc1ccc(NC(=S)NCc2cc(C(F)(F)F)ccc2F)cc1)c1ccccc1F` [Example 669, 2-Fluoro-N-{4-[3-(2-fluoro-5-trifluoromethyl-benzyl)-thioureido]-phenyl}-benzamide]: the IC50 is greater than 0.5 µg/mL in assay [1] (read-out: IC50 ug/ml HCMV) and greater than 10 µg/mL with HSV- I (HSV- I, Vero cells, ELISA). Regarding `O=C(Nc1ccc(NC(=S)Nc2cc(N3CCCCC3)cc(C(F)(F)F)c2)cc1)c1ccccc1F` [Example 570, 2-Fluoro-N-{4-[3-(3-piperidin-1-yl-5-trifluoromethyl-phenyl)-thioureido]-phenyl}-benzamide], the IC50 with VZV strain Ellen (setting [3]) is greater than 10 µg/mL; in assay [1] (setting [2]) it was greater than 0.5 µg/mL.

For the molecule `CN1CCC(N(C)c2ccc(NC(=S)Nc3ccc(NC(=O)c4ccccc4F)cc3)cc2Cl)CC1` [Example 855, N-[4-(3-{3-Chloro-4-[methyl-(1-methyl-piperidin-4-yl)-amino]-phenyl}-thioureido)-phenyl]-2-fluoro-benzamide], the inhibition at 10 µg/mL in the assay on VZV strain Ellen (Human alphaherpesvirus 3, read-out: % inhibition 10 ug/ml VZV, 10 ug/ml, VZV strain Ellen, HFF cells, ELISA) is 52%. Besides, the IC50 in the assay with VZV strain Ellen (Human alphaherpesvirus 3, VZV strain Ellen, HFF cells, ELISA, read-out: IC50 (ug/ml) VZV) is greater than 10 µg/mL. In addition, in assay [1] (HCMV, human foreskin fibroblasts), the “IC50 ug/ml HCMV” value came to 0.7 µg/mL (≈ 1.33 µM).

On to `C[C@H](NC(=S)Nc1ccc(NC(=O)c2cc3ccccc3cn2)cc1)c1ccc(Br)cc1` [Example 1108, Isoquinoline-3-carboxylic acid (4-{3-[(1S)-1-(4-bromo-phenyl)-ethyl]-thioureido}-phenyl)-amide], for which the IC50 with VZV strain Ellen (setting [3]) came out at 0.05 µg/mL (≈ 0.0989 µM); in assay [1] (setting [2]), 2.3 µg/mL (≈ 4.55 µM). In the case of `O=C(Nc1ccc(NC(=S)Nc2cc(N3CCOCC3)cc(C(F)(F)F)c2)cc1)c1ccccc1F` [Example 568, 2-Fluoro-N-{4-[3-(3-morpholin-4-yl-5-trifluoromethyl-phenyl)-thioureido]-phenyl}-benzamide], the values for the IC50 (in the assay on VZV strain Ellen (setting [3]); in assay [1] (setting [2])) were 2.3 µg/mL (≈ 4.44 µM) and greater than 0.5 µg/mL, respectively.
